“Also recorded” adds a separate entry of the source.
How the values were obtained:
[1] = literature, cited from earlier work
[2] = tested on: intestine lumen / technetium pertechnetate active transport
mouse jejunal mucosa = test: Dynamic enteroscintigraphy of jejunal absorption of ^99m TcO^-4 after total body irradiation; format: in vivo, C3Hf/Kam mice; details: for effect of irradiation on intestinal absorption: 4, 6, 8 and 12.5 Gy TBI
Excerpt: The effect of irradiation on pertechnetate (^99m TcO^-4) absorption in the mouse jejunum was studied in situ following single acute total body irradiation (TBI) with 4 Gy, 6 Gy, 8 Gy, and 12.5 Gy. During irradiation, three unanesthetized mice were placed in a 20×20×3.5 cm air-ventilated plastic jig and exposed to a single-source ^60 Co irradiator (Theratron 780-C) at a dose rate of […], with open irradiation field and 71 cm SSD. This setting assured homogeneous dose distribution within ±3% error.
Four to five mice per irradiation dose of 4 Gy, 6 Gy, 8 Gy and 12.5 Gy per day after irradiation (6 Gy irradiated group) were studied for the intestinal absorption function. The mice were fasted overnight (waster ad libitum) and then anesthetized with 100 μL of 1.5 mg/g ketamine solution injected intraperitoneally. The procedure began with a short midline incision of the abdomen after onset of deep anesthesia, and a 3 cm segment of the upper jejunum was identified, ligated with cotton sutures and catheterized with 0.2 mm flexible plastic catheter.
Next, the abdomen incision was closed with cotton sutures and the mouse was positioned under the collimated detector so the 1.5 cm window of the collimator was viewed at the heart projection with 0.2 cm skin-to-collimator distance. A 100 μL physiologic solution containing 100 μCi of Na(^99m TcO4) was rapidly injected through the catheter into the proximal end of the isolated jejunal segment with complete filling of the entire segment.
The absorption rate of ^99m TcO^-4 from the site of injection into the circulation was recorded automatically by measuring the relative radioactivity build-up rate above the heart projection with the frequency of two measurements per second. The entire dynamic enteroscintigraphy procedure took about 15 minutes in control mice. The systemic absorption of the pertechnetate (^99m TcO^-4) was performed on a standard scintillation radiometer combined with a multichannel analyzer (Ludlum Measurements, Sweetwater, Tex.) to record the radiometry data in time-dependent fashion. The software ULTIMA-4 was used to receive the graphic imaging of the dynamic radiometry data.
Measured activity/time curves detected above the heart are mathematically modeled as exponential saturation of the form y(t)=y0+dy {1-exp[-k(t-t0)]}; where y(t) is the observed time-dependent radioactive counts above the heart; y0 is the observed activity at time of tracer introduction, t0; dy is the magnitude of the change in radioactive counts after tracer introduction; and k is the rate constant characteristic of the active transport of tracer through the intestinal wall into the systemic blood circulation. Analyses of tracer absorption kinetics by this expression allow precise statistical assessment of radiation-induced functional impairment of the jejunal active transport process.

[3] = tested on: intestine lumen / technetium pertechnetate active transport; details: mouse, in vivo; cited from earlier work
jejunal crypts = test: Jejunal microcolony assay (surviving crypts); format: in vivo, C3H mice; details: 3.5 days, vs control
Procedure: (§1) At 3.5 days after irradiation with 4, 6, 8 and 12.5 Gy and immediately upon completion of the absorption study, groups of 4-5 mice per radiation dose were killed by cervical dislocation and a 2-cm length of jejunum was removed for histological preparation. Intestinal segments were fixed in 10% neutral buffered formalin. Four transverse sections of intestine were prepared embedded into paraffin, cut at a thickness of 4 μm and stained with hematoxylin and eosin (H&E). Slides with tissue sections were examined with light microscopy under 400-power magnification. A total of 500 crypt cells per mouse form 12-16 complete crypts were scored as mitotic or apoptotic. The jejunum microcolony assay of H. R. Withers et al., J. Rad. Biol., 17, 261 (1970) was used to quantify jejunal crypt survival. Tissue sections were scored microscopically using 100-power magnification. Surviving crypts contained at least 10 tightly packed columnar epithelial cells located in the base of the crypt (discrete cell microcolonies). The number of surviving crypts/circumference of jejunum was plotted as a function of radiation dose in Gy.
(§2) C3H female mice, 11-13 weeks of age, were used in this study.
(§3) The dynamic enteroscintigraphy with ^99m Tc-pertechnetate and the morphology studies were performed as described above in Example 1.

intestinal villi = format: in vivo, C3H mice; details: 9-AC (4 mg/kg), 3.5 days
Procedure: as §1, §2, §3

jejunal mucosa [4] = format: in vivo, C3H mice; details: 2 mg/kg 9-AC + 4 Gy TBI, day 3.5
Procedure: as §1, §2, §3

[5] = general statement; cited from earlier work
jejunum of C3H mice = details: mouse, in vivo, 2 mg/kg
Procedure: as §2, §3

[6] = Toxicity of 9-aminocamptothecin; details: single 2 mg/kg 9-AC intramuscular injection
jejunal mucosa [7] = details: literature, cited from earlier work
jejunal mucosa [8] = details: intraluminal, after 12.5 Gy TBI
Procedure: To exclude a role of simple diffusion ("leakage") of the tracer through the irradiated GI mucosa studies of the intestinal permeability with ^67 Ga-citrate complex introduced into the jejunal lumen at 84 hours after exposure to 12.5 Gy were performed.
In order to evaluate if ^99m TcO^-4 absorption remains an active transport process in irradiated animals rather than passive diffusion or "leakage" phenomenon, studies were performed on irradiated gut permeability with ^67 Ga citrate complex.

technetium pertechnetate [^99m TcO^-4]
metabolic activity [1]: low metabolic activity
radiotoxicity [1]: one of the least radiotoxic nuclides
γ-emission energy [1]: 140 keV
half-life ([1]; radionuclide): 6 h
intestinal absorption into the bloodstream ([2]; control mice): Rapid absorption
effect of irradiation on intestinal absorption (mouse jejunal mucosa): substantial dose-dependent decrease in the absorption function; also recorded: significantly decreases ^99m TcO^-4 jejunal absorption
effect of irradiation on intestinal absorption (mouse jejunal mucosa; listed as 99m Technetium-pertechnetate): decreased in a dose-dependent fashion
mean rate of the tracer absorption (mouse jejunal mucosa; 4 Gy TBI, 3.5 days after irradiation): 1.51±0.15
time of minimal absorption after irradiation (mouse jejunal mucosa; 6 Gy TBI): 3.5 days
time to return of absorption rate to a normal level (mouse jejunal mucosa; 6 Gy TBI): about 14 days
effect of irradiation on absorption function at 24 hours (mouse jejunal mucosa; 6 Gy TBI, 24 hours after irradiation): significant decrease in the absorption function; also recorded: significant effect
jejunal absorption, % of the control level (mouse jejunal mucosa; 12.5 Gy TBI, 3.5 days after irradiation, listed as 99m Technetium-pertechnetate): ~25 % of the control level
correlation of decrease in absorption with cells per villus and irradiation dose (mouse jejunal mucosa; 3.5 days after 4 to 12.5 Gy): correlated with the numbers of cells per villus and the irradiation dose
mean rate of the tracer absorption (mouse jejunal mucosa; control (no irradiation)): 1.35±0.25
time of maximal reduction of absorption (mouse jejunal mucosa; independently of TBI doses used): 84 h

[131IH] [^131 Iodine, iodine-131]
shape of intestinal absorption curve / active transport kinetics ([2]; mouse, in vivo): same shape of the ^99m TcO^-4 intestinal absorption curve was obtained

[K+].[O-][Cl+3]([O-])([O-])[O-] [KClO4, potassium perchlorate]
shift of the saturation point on the radioactivity/time curve ([2]; mouse, in vivo): shifted the saturation point on the radioactivity/time curve to the right without changes in the amount of the absorbed tracer
competitive inhibition of technetium pertechnetate active transport [3]: known competitive inhibitor

CC[C@@]1(O)C(=O)OCc2c1cc1n(c2=O)Cc2cc3c(N)cccc3nc2-1 [9-aminocamptothecin]
jejunal crypt survival (jejunal crypts; 9-AC (2 mg/kg) plus irradiation (4 Gy)): failed to show any difference in jejunal crypt survival
jejunal crypt survival (jejunal crypts; 9-AC alone (2 mg/kg)): failed to show any difference in jejunal crypt survival
cell loss on the intestinal villi (intestinal villi): maximal cell loss on the intestinal villi
additive decrease in absorption vs number of apoptotic cells in the jejunal mucosa (jejunal mucosa [4]): correlates well with the number of apoptotic cells in the jejunal mucosa
GI toxicity [5]: pronounced GI toxicity
mean rate of ^99m Tc-pertechnetate intestinal absorption (jejunum of C3H mice): significantly delayed
2 mg/kg intramuscular dose as fraction of LD10 [6]: 1/2

O=C([O-])CC(O)(CC(=O)[O-])C(=O)[O-].[67Ga+3] [^67 Ga-citrate]
accumulation in the sites of lesion (jejunal mucosa [7]; inflammation or local hyperthermia): augments ^67 Ga-citrate accumulation in the sites of lesion
crossing of the intestinal epithelial barrier (jejunal mucosa [7]; normal): normally does not cross the intestinal epithelial barrier
jejunal mucosa permeability (jejunal mucosa [8]): jejunal mucosa stays impermeable
